Tests used:
cholera toxin = cholera toxin (Vibrio cholerae serotype O1, UniProt P01556); experiment: biochemical; settings: read-out: inhibition of binding of cholera toxin to ganglioside GD1b
[1] = molecular target: heat-labile enterotoxin from E. coli (Escherichia coli, UniProt P0CK94); format: binding; settings: at the concentration employed in the assay
CFA I pili = CFA I pili (Escherichia coli, UniProt P0CK93+P25734); experiment: biochemical; settings: read-out: inhibition of CFA I pili binding to glycophorin
Chain of CFA I pili (P0CK93 24-170): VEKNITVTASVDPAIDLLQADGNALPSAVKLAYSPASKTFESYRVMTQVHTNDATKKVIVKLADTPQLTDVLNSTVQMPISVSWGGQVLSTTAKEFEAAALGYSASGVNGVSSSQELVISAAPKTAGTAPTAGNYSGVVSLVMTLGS
Chain of CFA I pili (P25734 23-360): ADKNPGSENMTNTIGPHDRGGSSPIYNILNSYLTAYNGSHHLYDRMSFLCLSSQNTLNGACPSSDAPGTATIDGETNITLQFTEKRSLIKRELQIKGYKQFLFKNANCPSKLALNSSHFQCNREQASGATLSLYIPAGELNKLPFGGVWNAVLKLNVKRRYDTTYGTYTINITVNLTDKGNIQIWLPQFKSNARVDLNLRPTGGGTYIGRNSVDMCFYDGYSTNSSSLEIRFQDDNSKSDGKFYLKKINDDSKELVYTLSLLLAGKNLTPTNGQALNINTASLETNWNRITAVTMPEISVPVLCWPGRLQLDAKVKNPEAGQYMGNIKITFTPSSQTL

Chain of cholera toxin (P01556 22-124 limits assumed): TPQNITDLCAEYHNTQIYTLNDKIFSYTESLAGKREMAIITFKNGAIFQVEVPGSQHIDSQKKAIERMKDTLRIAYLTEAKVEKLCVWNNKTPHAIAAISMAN
Chain of heat-labile enterotoxin from E. coli (P0CK94 whole entry, looked up): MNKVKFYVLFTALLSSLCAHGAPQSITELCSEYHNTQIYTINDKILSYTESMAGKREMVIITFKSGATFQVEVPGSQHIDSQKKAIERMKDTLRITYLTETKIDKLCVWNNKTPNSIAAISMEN

| Compound | inhibition at 1000 µg/mL (cholera toxin) [%] | inhibition of binding of heat-labile enterotoxin to ganglioside GD1b [1] | inhibition at 1000 µg/mL (CFA I pili) [%] |
| --- | --- | --- | --- |
| OC[C@H]1O[C@@H](SC2CCC(O)C2)[C@H](O)[C@@H](O)[C@H]1O (stereo partly drawn) [Example A7, 3-Hydroxycyclopent-1-yl 1-Thio-β-D-galactopyranoside] | < 20 | < 20% |  |
| NC1CCCCC(S[C@@H]2O[C@H](CO)[C@H](O)[C@H](O)[C@H]2O)C1 (stereo partly drawn) [Example B5, 3-Aminocyclohept-1-yl 1-Thio-β-D-galactopyranoside] |  |  | 13 to 71 |
| CC(=O)NC1CCCC(S[C@@H]2O[C@H](CO)[C@H](O)[C@H](O)[C@H]2O)C1 (stereo partly drawn) [Example C10, 3-Acetamidocyclohexyl 1-Thio-β-D-galactopyranoside] | ≥ 20 | < 20% |  |
| O=C(O)CCNC1CCCC1S[C@@H]1O[C@H](CO)[C@H](O)[C@H](O)[C@H]1O (stereo partly drawn) [Example F1, Nβ-[2-(1-Thio-β-D-galactopyranosyl)cyclopent-1-yl]-β-alanin] | < 20 | at least 20% |  |
| CC(CC(S[C@@H]1O[C@H](CO)[C@H](O)[C@H](O)[C@H]1O)c1ccccc1)N[C@@H](Cc1c[nH]cn1)C(=O)O (stereo partly drawn) [Example H3, Nα-[4-Phenyl-4-(1-thio-β-D-galactopyranosyl)but-2-yl]-L-histidine] | ≥ 20 |  | 13 to 71 |
| NC1CCC(S[C@@H]2O[C@H](CO)[C@H](O)[C@H](O)[C@H]2O)C1 (stereo partly drawn) [Example B7, 3-Aminocyclopent-1-yl 1-Thio-β-D-galactopyranoside] | ≥ 20 | at least 20% |  |
| CC(=O)NC1CCC(S[C@@H]2O[C@H](CO)[C@H](O)[C@H](O)[C@H]2O)C1 (stereo partly drawn) [Example C7, 3-Acetamidocyclopent-1-yl 1-Thio-β-D-galactopyranoside] | ≥ 20 | at least 20% |  |
| O=C(O)CCNC1CCCC(S[C@@H]2O[C@H](CO)[C@H](O)[C@H](O)[C@H]2O)C1 (stereo partly drawn) [Example F10, Nβ-[3-(1-Thio-β-D-galactopyranosyl)cyclohex-1-yl]-β-alanine] | < 20 | at least 20% |  |
| O=C(O)c1ccccc1C(=O)NC1CCCCC(S[C@@H]2O[C@H](CO)[C@H](O)[C@H](O)[C@H]2O)C1 (stereo partly shown) [Example D5, 3-(2-Carboxybenzamido)cyclohept-1-yl 1-Thio-βD-galactopyranoside] | ≥ 20 | at least 20% |  |
| N=C(N)NCCC[C@H](NC1CCC(S[C@@H]2O[C@H](CO)[C@H](O)[C@H](O)[C@H]2O)C1)C(=O)O (stereo partly drawn) [Example J7, Nα-[3-(1-Thio-β-D-galactopyranosyl)cyclopent-1-yl]-L-arginine] | < 20 | at least 20% |  |
| O=C(O)CNC1C2CCC(C2)C1CS[C@@H]1O[C@H](CO)[C@H](O)[C@H](O)[C@H]1O (stereo partly drawn) [Example E4, Nα-[3-((1-Thio-β-D-galactopyranosyl)methyl)norborn-2-yl]glycine] |  | at least 20% |  |
| NC1CCCC(S[C@@H]2O[C@H](CO)[C@H](O)[C@H](O)[C@H]2O)C1 (stereo partly drawn) [Example B10, 3-Aminocyclohex-1-yl 1-Thio-β-D-galactopyranoside] | < 20 | at least 20% |  |
| O=C(O)[C@H](Cc1c[nH]cn1)NC1CCC(S[C@@H]2O[C@H](CO)[C@H](O)[C@H](O)[C@H]2O)C1 (stereo partly drawn) [Example H7, Nα-[3-(1-Thio-β-D-galactopyranosyl)cyclopent-1-yl]-L-histidine] |  |  | 13 to 71 |
| CC(C)C[C@H](NC1CCCCC(S[C@@H]2O[C@H](CO)[C@H](O)[C@H](O)[C@H]2O)C1)C(=O)O (stereo partly drawn) [Example G5, Nα-[1-(1-Thio-β-D-galactopyranosyl)cyclohept-3-yl]-L,Ieucine] | ≥ 20 | at least 20% |  |
| CC1(C)CCC(S[C@@H]2O[C@H](CO)[C@H](O)[C@H](O)[C@H]2O)CC1O (stereo partly drawn) [Example A11, 4,4Dimethyl-3-hydroxycyclohex-1-yl 1-Thio-β-D-galactopyranoside] |  | at least 20% |  |
| O=C(O)[C@H](Cc1c[nH]c2ccccc12)NC1CCCCC(S[C@@H]2O[C@H](CO)[C@H](O)[C@H](O)[C@H]2O)C1 (stereo partly drawn) [Example I5, Nα-[3-(1-Thio-β-D-galactopyranosyl)cyclohept-1-yl]-L-tryptophan] | ≥ 20 | at least 20% |  |
| OC[C@H]1O[C@@H](SCC2C3CCC(C3)C2O)[C@H](O)[C@@H](O)[C@H]1O (stereo partly drawn) [Example A4, (3-Hydroxynorborn-2-yl)methyl 1-Thio-β-D-galactopyranoside] | < 20 | at least 20% |  |
| O=C(O)CCNC1CCC(S[C@@H]2O[C@H](CO)[C@H](O)[C@H](O)[C@H]2O)C1 (stereo partly drawn) [Example F7, N-β-[3-(1-Thio-β-D-galactopyranosyl)cyclopent-1-yI]-β-alanine] | < 20 | at least 20% |  |

| Compound | inhibition at 1000 µg/mL (cholera toxin) [%] | inhibition of binding of heat-labile enterotoxin to ganglioside GD1b [1] | inhibition at 1000 µg/mL (CFA I pili) [%] |
| --- | --- | --- | --- |
| OC[C@H]1O[C@@H](SC2CCCC(O)C2)[C@H](O)[C@@H](O)[C@H]1O (stereo partly drawn) [Example A10, 3-Hydroxycyclohex-1-yl 1-Thio-β-D-galactopyranoside] | < 20 | at least 20% |  |
| CC1(C)CCC(N[C@@H](CCCNC(=N)N)C(=O)O)CC1S[C@@H]1O[C@H](CO)[C@H](O)[C@H](O)[C@H]1O (stereo partly drawn) [Example J9, Nα-[4,4-Dimethyl-3-(1-thio-β-D-galactopyranosyl)-cyclohex-1-yl]-L-arginine] | < 20 |  | 13 to 71 |
| CC(=O)NC1CC(S[C@@H]2O[C@H](CO)[C@H](O)[C@H](O)[C@H]2O)CCC1(C)C (stereo partly drawn) [Example C11, 3-Acetamido-4,4-dimethylcyclohexyl 1-Thio-β-D-galactopyranoside] |  | at least 20% |  |
| NC1C2CCC(C2)C1CS[C@@H]1O[C@H](CO)[C@H](O)[C@H](O)[C@H]1O (stereo partly drawn) [Example B4, (3-Aminonorborn-2-yl)methyl 1-Thio-β-D-galactopyranoside] | < 20 | at least 20% |  |
| O=C(O)CNC1CCCCC1S[C@@H]1O[C@H](CO)[C@H](O)[C@H](O)[C@H]1O (stereo partly drawn) [Example E2, Nα-[2-(1-Thio-β-D-galactopyranosyl)cyclohex-1-yl]gIycine] |  | at least 20% |  |
| CC1(C)CCC(S[C@@H]2O[C@H](CO)[C@H](O)[C@H](O)[C@H]2O)CC1NCC(=O)O (stereo partly drawn) [Example E11, Nα-[5-(1-Thio-β-D-galactopyranosyl)-2 ,2-dimethylcyclohex-1-yl]glycine] |  | at least 20% |  |
| CC(=O)NC1CCCCC(S[C@@H]2O[C@H](CO)[C@H](O)[C@H](O)[C@H]2O)C1 (stereo partly drawn) [Example C5, 3-Acetamidocyclohept-1-yl 1-Thio-β-D-galactopyranoside] | ≥ 20 | at least 20% |  |
| OC[C@H]1O[C@@H](SC2CCCC2O)[C@H](O)[C@@H](O)[C@H]1O (stereo partly drawn) [Example A1, 2-Hydroxycyclopent-1-yl 1-Thio-β-D-galactopyranoside] | < 20 | at least 20% |  |
| CC1(C)CCC(S[C@@H]2O[C@H](CO)[C@H](O)[C@H](O)[C@H]2O)CC1N (stereo partly drawn) [Example B11, 3-Amino-4,4-dimethylcyclohex-1-yl 1-Thio-β-D-galactopyranoside] |  | at least 20% |  |
| O=C(O)CCNC1CCCCC(S[C@@H]2O[C@H](CO)[C@H](O)[C@H](O)[C@H]2O)C1 (stereo partly drawn) [Example F5, Nβ-[3-(1-Thio-β-D-galactopyranosyl)cyclohept-1-yl]-β-alanine] | < 20 | at least 20% |  |
| O=C(O)c1ccccc1C(=O)NC1CCCCC1S[C@@H]1O[C@H](CO)[C@H](O)[C@H](O)[C@H]1O (stereo partly drawn) [Example D2, 2-(2-Carboxybenzamido)cyclohex-1-yl 1-Thio-β-D-galactopyranoside] |  | < 20% |  |
| O=C(O)CNC1CCCC1S[C@@H]1O[C@H](CO)[C@H](O)[C@H](O)[C@H]1O (stereo partly drawn) [Example E1, Nα-[2-(1-Thio-β-D-galactopyranosyl)cyclopent-1-yl]glycine] | ≥ 20 | at least 20% |  |
| CC1(C)CC(N[C@@H](Cc2c[nH]cn2)C(=O)O)CC1S[C@@H]1O[C@H](CO)[C@H](O)[C@H](O)[C@H]1O (stereo partly drawn) [Example H6, Nα-[4,4-Dimethyl-3-(1-thio-β-D-galactopyranosyl)-cyclopent-1-yl]-L-histidine] |  |  | 13 to 71 |
| CC(C)C[C@H](NC1CCCCC1S[C@@H]1O[C@H](CO)[C@H](O)[C@H](O)[C@H]1O)C(=O)O (stereo partly drawn) [Example G2, Nα-[2-(1-Thio-β-D-galactopyranosyl)cyclohex-1-yl]-L-leucine] | ≥ 20 | < 20% |  |
| O=C(O)CCNC1CCCCC1S[C@@H]1O[C@H](CO)[C@H](O)[C@H](O)[C@H]1O (stereo partly drawn) [Example F2, Nβ-[2-(1-Thio-β-D-galactopyranosyl)cyclohex-1-yl]-β-alanine] |  | at least 20% |  |
| NC1CCCC1S[C@@H]1O[C@H](CO)[C@H](O)[C@H](O)[C@H]1O (stereo partly drawn) [Example B1, 2-Aminocyclopent-1-yl 1-Thio-β-D-galactopyranoside] | < 20 | at least 20% |  |
| O=C(O)c1ccccc1C(=O)NC1C2CCC(C2)C1CS[C@@H]1O[C@H](CO)[C@H](O)[C@H](O)[C@H]1O (stereo partly drawn) [Example D4, [3-(Carboxybenzamido)norborn-2-yl]methyl 1-Thio-β-D-galactopyranoside] |  | at least 20% |  |
